Source: patent US6703415B2, “Inhibitors of matrix metallaproteinases” (Wayne State University, priority 2000, dated 2004)
Where two headings read alike, the source gives them in different places.

Columns and labels:
[1] = target: T1, MMP-2 (Homo sapiens, UniProt P08253); assay: biochemical
T1 sequence (P08253 110-660): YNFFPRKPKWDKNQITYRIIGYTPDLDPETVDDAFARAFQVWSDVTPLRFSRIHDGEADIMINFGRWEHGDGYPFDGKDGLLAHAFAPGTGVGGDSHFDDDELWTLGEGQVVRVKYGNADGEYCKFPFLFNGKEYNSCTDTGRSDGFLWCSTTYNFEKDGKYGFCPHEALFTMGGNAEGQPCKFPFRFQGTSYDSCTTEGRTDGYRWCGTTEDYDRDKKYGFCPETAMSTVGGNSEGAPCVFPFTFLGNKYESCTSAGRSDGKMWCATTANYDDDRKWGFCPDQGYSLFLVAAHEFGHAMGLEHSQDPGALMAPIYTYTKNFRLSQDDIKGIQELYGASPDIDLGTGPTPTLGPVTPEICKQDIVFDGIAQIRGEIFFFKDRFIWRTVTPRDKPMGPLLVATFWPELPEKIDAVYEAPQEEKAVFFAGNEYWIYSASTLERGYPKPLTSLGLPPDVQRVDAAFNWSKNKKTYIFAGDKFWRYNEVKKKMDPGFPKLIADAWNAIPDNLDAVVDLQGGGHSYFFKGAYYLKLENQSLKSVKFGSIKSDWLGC

[2] = target: T2, MMP-9 (Homo sapiens, UniProt P14780); assay: biochemical
T2 sequence (P14780 107-707 limits assumed): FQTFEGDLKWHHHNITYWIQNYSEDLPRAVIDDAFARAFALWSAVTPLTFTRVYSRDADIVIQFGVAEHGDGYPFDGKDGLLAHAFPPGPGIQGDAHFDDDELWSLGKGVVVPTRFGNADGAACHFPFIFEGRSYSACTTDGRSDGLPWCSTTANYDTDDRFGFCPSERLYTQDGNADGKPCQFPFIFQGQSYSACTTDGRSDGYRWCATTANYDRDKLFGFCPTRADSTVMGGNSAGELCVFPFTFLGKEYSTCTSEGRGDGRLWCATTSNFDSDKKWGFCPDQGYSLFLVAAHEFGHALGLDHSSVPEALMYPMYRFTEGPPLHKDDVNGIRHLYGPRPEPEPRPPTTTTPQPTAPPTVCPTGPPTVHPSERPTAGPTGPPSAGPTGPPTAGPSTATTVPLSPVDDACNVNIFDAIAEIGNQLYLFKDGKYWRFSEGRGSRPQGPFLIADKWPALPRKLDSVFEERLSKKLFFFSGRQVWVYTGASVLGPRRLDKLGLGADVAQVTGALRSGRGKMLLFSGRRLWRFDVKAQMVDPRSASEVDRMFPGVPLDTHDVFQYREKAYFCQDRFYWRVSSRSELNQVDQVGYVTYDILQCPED

[3] = target: T3, MMP-3 (Homo sapiens, UniProt P08254); assay: Fluorescence enzymatic activity assay / kinetic analyses, stromelysin 1 (MMP-3); type: biochemical; conditions: NI = not inhibiting even at 130-330 μM
T3 construct: gift of Dr. Paul Cannon, Center for Bone and Joint Research, Palo Alto, Calif
T3 sequence (P08254 100-477): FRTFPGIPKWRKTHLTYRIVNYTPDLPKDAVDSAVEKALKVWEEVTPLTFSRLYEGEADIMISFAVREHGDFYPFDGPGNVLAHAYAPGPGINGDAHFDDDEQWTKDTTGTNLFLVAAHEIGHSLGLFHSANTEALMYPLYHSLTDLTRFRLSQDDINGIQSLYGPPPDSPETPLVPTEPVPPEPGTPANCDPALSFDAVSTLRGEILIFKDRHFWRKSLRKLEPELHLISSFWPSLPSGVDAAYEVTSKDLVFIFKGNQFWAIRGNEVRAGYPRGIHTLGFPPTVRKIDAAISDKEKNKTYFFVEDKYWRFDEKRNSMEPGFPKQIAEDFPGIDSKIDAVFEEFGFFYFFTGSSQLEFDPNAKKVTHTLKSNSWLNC

[4] = target: T4, MMP-7 (Homo sapiens, UniProt P09237); assay: Fluorescence enzymatic activity assay / kinetic analyses, MMP-7; type: biochemical; conditions: NI = not inhibiting even at 130-330 μM
T4 sequence (P09237 95-267): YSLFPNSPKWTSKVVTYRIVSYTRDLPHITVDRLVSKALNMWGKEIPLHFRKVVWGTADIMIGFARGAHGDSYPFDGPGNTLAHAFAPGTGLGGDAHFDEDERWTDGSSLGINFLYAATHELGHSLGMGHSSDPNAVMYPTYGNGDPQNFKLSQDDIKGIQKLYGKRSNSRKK
Experimental: The enzymatic activity of MMP-2, MMP-9, and MMP-7 was monitored with the fluorescence quenched substrate MOCAcPLGLA2pr(Dnp)-AR-NH2. Fluorescence was measured with a Photon Technology International (PTI) spectrofluorometer interfaced to a Pentium computer, equipped with the RatioMaster™ and FeliX™ hardware and software, respectively. The cuvette compartment was thermostated at 25.0° C. […] Fluorescence measurements were taken every 4 s. Less than 10% hydrolysis of the fluorogenic substrate was monitored, as described by Knight.

[5] = target: T5, MMP-1 (Homo sapiens, UniProt P03956); assay: Kinetic analyses, MMP-1; type: biochemical; conditions: NI = not inhibiting even at 130-330 μM
T5 sequence (P03956 100-469): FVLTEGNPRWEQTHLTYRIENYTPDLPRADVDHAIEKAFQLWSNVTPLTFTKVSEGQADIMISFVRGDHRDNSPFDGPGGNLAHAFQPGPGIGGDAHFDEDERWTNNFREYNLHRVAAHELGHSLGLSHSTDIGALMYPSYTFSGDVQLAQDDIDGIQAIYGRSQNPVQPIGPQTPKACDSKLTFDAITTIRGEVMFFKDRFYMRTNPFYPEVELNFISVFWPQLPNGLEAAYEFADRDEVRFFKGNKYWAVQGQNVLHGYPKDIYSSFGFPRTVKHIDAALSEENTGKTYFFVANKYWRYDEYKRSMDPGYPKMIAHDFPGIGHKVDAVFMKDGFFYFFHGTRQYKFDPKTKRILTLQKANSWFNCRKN
Experimental: The progress curves were nonlinear least squares fitted to Equation 1 (Muller-Steffner, H. M., Malver, O., Hosie, L., Oppenheimer, N. J., and Schuber, F. J. Biol. Chem. 1992, 267, 9606-9611.):
Analysis for linear competitive inhibition was performed in the following manner. […] The fluorescence versus time traces were fitted by linear regression analysis using FeliX™. The initial rates were fitted to Equation 5 (Segel, I. H. in: Enzyme Kinetics, Wiley Inc., New York, 1975, pp. 104.):
The following buffers were used in experiments with enzymes: Buffer C (50 mM HEPES at pH 7.5, 150 mM NaCl, 5 mM CaCl2, 0.02% Brij-35); buffer R (50 mM HEPES at pH 7.5, 150 mM NaCl, 5 mM CaCl2, 0.01% Brij-35, and 1% v/v Me2SO) and buffer D (50 mM Tris at pH 7.5, 150 mM NaCl, 5 mM CaCl2, and 0.02% Brij-35).

[6] = target: T1, MMP-2; conditions: high-affinity site for TIMPs, reported earlier (Olson et al. 1997); cited from earlier work
[7] = target: T2, MMP-9; conditions: high-affinity site for TIMPs, reported earlier (Olson et al. 1997); cited from earlier work

Compound | Ki [1] [µM] | Ki [2] [µM] | Ki [3] [µM] | Ki [4] [µM] | Ki [5] [µM] | melting point [°C] | Ki ([1]; Ki) [µM] | Ki [6] [µM] | Ki [7] [µM]
O=S(=O)(CCC1CS1)c1ccc(Oc2ccccc2)cc1 (stereo not shown) [Compound 2, 2-(4-Phenoxyphenylsulfonyl)ethylthiirane] | 4.7 ± 0.7 | 44 ± 5 | > 130 | > 130 | > 130 | 99 to 101 | – | – | –
O=S(=O)(CCCC1CS1)c1ccc(Oc2ccccc2)cc1 (stereo not shown) [Compound 3, 3-(4-Phenoxyphenylsulfonyl)propylthiirane] | 4.3 ± 0.7 | 181 ± 41 | > 130 | > 130 | > 130 | 75 to 76 | – | – | –
O=S(=O)(CC1CO1)c1ccc(Oc2ccccc2)cc1 (stereo not shown) [Compound 4, (4-Phenoxyphenylsulfonyl)methyloxirane] | – | 186 ± 11 | > 130 | > 130 | > 130 | 50 to 51 | 25 ± 2 | – | –
O=S(=O)(CCC1CO1)c1ccc(Oc2ccccc2)cc1 (stereo not shown) [Compound 5, 2-(4-Phenoxyphenylsulfonyl)ethyloxirane] | – | 102 ± 2 | > 130 | > 130 | > 130 | 75 to 77 | 5.1 ± 0.5 | – | –
O=S(=O)(CCCC1CO1)c1ccc(Oc2ccccc2)cc1 (stereo not shown) [Compound 6, 3-(4-Phenoxyphenylsulfonyl)propyloxirane] | – | 75 ± 6 | > 130 | > 130 | > 130 | – | 10.7 ± 0.6 | – | –
TIMP-1: endogenous cellular protein inhibitor of MMPs (tissue inhibitor for matrix metalloproteinases) | – | – | – | – | – | – | – | 0.029 ± 0.005 | 0.024 ± 0.004
